Source: patent US20150038435A1, “N-TERMINALLY MODIFIED OLIGOPEPTIDES AND USES THEREOF” (Novo Nordisk A/S, priority 2012, published 2015)
*: point of attachment. C12 diacid = O=C(O)CCCCCCCCCCC(=O)*; Lauroyl = CCCCCCCCCCCC(=O)*

How the values were obtained:
[1] = system: Trypsin; experiment: Inhibition of enzymatic degradation of a model GLP-1 (FRET substrate) by trypsin; format: biochemical; details: for EC50: read-out: EC50 Trypsin (0.001 mg/ml), 0.001 mg/ml trypsin, 37° C.
In short: (§1)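 MCA/DNP-labelled model GLP-1 FRET substrate (10 μl of 100 μM stock) in Dulbecco's PBS at 37° C with varying acylated peptide; fluorescence (ex 320/em 405 nm) read every minute for ≥30 min. Initial slopes from linear regression, duplicates averaged; EC50 by sigmoidal logistic fit of slope vs concentration.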

[2] = Hydrophobicity: retention time during reverse phase HPLC; format: physicochemical; details: Acquity CSH C18; pH 7.2 buffer/CH3CN gradient; 40° C.
Excerpt: The retention time (RT) during reverse phase HPLC was taken as a measure of hydrophobicity of an N-terminally modified peptide or oligopeptide of the invention, where the connection is: The longer the RT, the more hydrophobic N-terminally modified peptide or oligopeptide. The following running conditions were applied during HPLC analysis:
Buffer B: 70% (v/v) aq. CH3CN

[3] = system: Chymotrypsin; experiment: Inhibition of enzymatic degradation of a model GLP-1 (FRET substrate) by chymotrypsin; format: biochemical; details: for EC50: read-out: EC50 Chymotrypsin (0.001 mg/ml), 0.001 mg/ml chymotrypsin, 37° C., ± standard error if at least 3 measurements
In short: as §1

[4] = compound 0.1 mM, buffer containing 8% DMSO

Row | Substance | RT (retention time during reverse phase HPLC as a measure of hydrophobicity) [2] | EC50 [1] | EC50 [3] | Slope of the initial increase in fluorescence obtained during incubation with 0.001 mg/ml Trypsin [1, 4] | Slope of the initial increase in fluorescence obtained during incubation with 0.001 mg/ml Chymotrypsin [3, 4] | Slope of the initial increase in fluorescence obtained during incubation with 0.001 mg/ml Trypsin ([1]; compound 1 mM) | Slope of the initial increase in fluorescence obtained during incubation with 0.001 mg/ml Chymotrypsin ([3]; compound 1 mM)
1 | N-dodecanoyl-Ala-Asp-Pro-Tyr-OH (Lauroyl-ADPY-OH; SMILES CCCCCCCCCCCC(=O)N[C@@H](C)C(=O)N[C@@H](CC(=O)O)C(=O)N1CCC[C@H]1C(=O)N[C@@H](Cc1ccc(O)cc1)C(=O)O) [Example 75] | 4.2 min |  |  | 1.81 | 1.77 |  | 
2 | N-dodecanoyl-Val-Ala-Pro-Tyr-OH (Lauroyl-VAPY-OH; SMILES CCCCCCCCCCCC(=O)N[C@H](C(=O)N[C@@H](C)C(=O)N1CCC[C@H]1C(=O)N[C@@H](Cc1ccc(O)cc1)C(=O)O)C(C)C) [Example 55] | 7.01 min |  |  | 1.88 | 0.42 |  | 
3 | N-dodecanoyl-Ser-Ala-Pro-Tyr-OH (Lauroyl-SAPY-OH; SMILES CCCCCCCCCCCC(=O)N[C@@H](CO)C(=O)N[C@@H](C)C(=O)N1CCC[C@H]1C(=O)N[C@@H](Cc1ccc(O)cc1)C(=O)O) [Example 51] | 5.2 min |  |  | 1.66 | 0.41 |  | 
4 | N-dodecandioyl-Ala-Ala-Pro-Phe-OH ({C12 diacid}-AAPF-OH) [Example 15] | 3.13 min |  |  |  |  | 4.17 | 2.07
5 | N-dodecanoyl-Ala-Ala-Lys-Tyr-OH (Lauroyl-AAKY-OH; SMILES CCCCCCCCCCCC(=O)N[C@@H](C)C(=O)N[C@@H](C)C(=O)N[C@@H](CCCCN)C(=O)N[C@@H](Cc1ccc(O)cc1)C(=O)O) [Example 67] | 4.7 min |  |  | 1.89 | 0.94 |  | 
6 | N-dodecanoyl-Ala-Ala-Pro-Trp-OH (Lauroyl-AAPW-OH; SMILES CCCCCCCCCCCC(=O)N[C@@H](C)C(=O)N[C@@H](C)C(=O)N1CCC[C@H]1C(=O)N[C@@H](Cc1c[nH]c2ccccc12)C(=O)O) [Example 26] | 7.03 min | 413 µM | 29 ± 2 µM |  |  |  | 
7 | N-dodecanoyl-Asp-Ala-Pro-Tyr-OH (Lauroyl-DAPY-OH; SMILES CCCCCCCCCCCC(=O)N[C@@H](CC(=O)O)C(=O)N[C@@H](C)C(=O)N1CCC[C@H]1C(=O)N[C@@H](Cc1ccc(O)cc1)C(=O)O) [Example 96] | 3.86 min |  |  | 1.78 | 1.63 |  | 
8 | N-dodecanoyl-Arg-Ala-Pro-Tyr-OH (Lauroyl-RAPY-OH; SMILES CCCCCCCCCCCC(=O)N[C@@H](CCCNC(=N)N)C(=O)N[C@@H](C)C(=O)N1CCC[C@H]1C(=O)N[C@@H](Cc1ccc(O)cc1)C(=O)O) [Example 92] | 4.84 min |  |  | 1.44 | 0.23 |  | 
9 | N-dodecanoyl-Ala-Ala-Gly-Tyr-OH (Lauroyl-AAGY-OH; SMILES CCCCCCCCCCCC(=O)N[C@@H](C)C(=O)N[C@@H](C)C(=O)NCC(=O)N[C@@H](Cc1ccc(O)cc1)C(=O)O) [Example 63] | 5.46 min |  |  | 1.90 | 1.89 |  | 
10 | N-dodecanoyl-Phe-Pro-Tyr-OH [Example 124] | 8.19 min |  |  | 0.63 | 0.12 |  | 
11 | N-dodecanoyl-His-Ala-Pro-Tyr-OH (Lauroyl-HAPY-OH; SMILES CCCCCCCCCCCC(=O)N[C@@H](Cc1c[nH]cn1)C(=O)N[C@@H](C)C(=O)N1CCC[C@H]1C(=O)N[C@@H](Cc1ccc(O)cc1)C(=O)O) [Example 39] | 5.08 min |  |  | 1.84 | 0.27 |  | 
12 | N-dodecanoyl-Ala-Ala-Asn-Tyr-OH (Lauroyl-AANY-OH; SMILES CCCCCCCCCCCC(=O)N[C@@H](C)C(=O)N[C@@H](C)C(=O)N[C@@H](CC(N)=O)C(=O)N[C@@H](Cc1ccc(O)cc1)C(=O)O) [Example 59] | 7.88 min |  |  | 1.72 | 1.79 |  | 
13 | N-dodecanoyl-Ala-Glu-Pro-Tyr-OH (Lauroyl-AEPY-OH; SMILES CCCCCCCCCCCC(=O)N[C@@H](C)C(=O)N[C@@H](CCC(=O)O)C(=O)N1CCC[C@H]1C(=O)N[C@@H](Cc1ccc(O)cc1)C(=O)O) [Example 77] | 4.17 min |  |  | 1.55 | 1.56 |  | 

Further lines, with some results ahead:

Row | RT (retention time during reverse phase HPLC as a measure of hydrophobicity) [2] | EC50 [1] | EC50 [3] | Substance | Slope of the initial increase in fluorescence obtained during incubation with 0.001 mg/ml Trypsin [1, 4] | Slope of the initial increase in fluorescence obtained during incubation with 0.001 mg/ml Chymotrypsin [3, 4] | Slope of the initial increase in fluorescence obtained during incubation with 0.001 mg/ml Trypsin ([1]; compound 1 mM) | Slope of the initial increase in fluorescence obtained during incubation with 0.001 mg/ml Chymotrypsin ([3]; compound 1 mM)
14 | 6.34 min | 391 µM | 341 µM | N-dodecanoyl-OEG-OEG-DPhe-OH [Example 129] |  |  | 0.38 | 0.16
15 | 5.74 min |  |  | N-dodecanoyl-Ala-Ala-Ala-Pro-Tyr-OH [Example 56] | 1.92 | 0.59 |  | 
16 | 3.92 min |  |  | N-dodecanoyl-Asp-Ala-Ala-Pro-Tyr-OH [Example 95] | 1.82 | 0.10 |  | 
17 | 7.87 min |  |  | N-dodecanoyl-Leu-Ala-Ala-Pro-Tyr-OH [Example 42] | 0.89 | 0.00 |  | 
18 | 3.95 min |  |  | N-dodecanoyl-γGlu-OEG-Ala-Ala-Pro-Phe-OH [Example 125] |  |  | 0.38 | 0.75
19 | 5.08 min |  |  | N-dodecanoyl-Gln-Pro-Tyr-OH [Example 116] | 1.75 | 1.48 |  | 
20 | 8.24 min |  |  | N-dodecanoyl-Trp-Pro-Tyr-OH [Example 109] | 0.73 | 0.05 |  | 
21 | 6.89 min |  |  | N-dodecanoyl-Ala-Ala-Pro-DPhe-OH [Example 4] |  |  | 0.83 | 0.08
22 | 3.91 min |  |  | N-dodecanoyl-Glu-Pro-Tyr-OH [Example 117] | 1.66 | 1.82 |  | 
23 | 8.06 min |  |  | N-dodecanoyl-Aib-Aib-Pro-Phe-OH [Example 7] |  |  | 0.49 | 0.34
24 | 5.07 min |  |  | N-dodecanoyl-Asn-Pro-Tyr-OH [Example 114] | 1.99 | 2.01 |  | 
25 | 4.82 min |  |  | N-dodecanoyl-Gln-Ala-Ala-Pro-Tyr-OH [Example 102] | 1.66 | 0.14 |  | 
26 | 7.77 min |  |  | N-dodecanoyl-Leu-Pro-Tyr-OH [Example 121] | 1.35 | 0.34 |  | 
27 | 7 min |  |  | N-dodecanoyl-Val-Pro-Tyr-OH [Example 111] | 1.93 | 0.31 |  | 
